Results published in patent US10420815B2, “Combinational therapy for synergistic inhibition of gram-positive and gram-negative bacteria” (priority 2015, dated 2019).
Like-named read-outs stand apart in the source and are kept apart here. Bridge positions count the residues as written; N and C are the ends. Square brackets hold non-standard residues; d marks the D form. Peptide text beside a SMILES is read from it. * marks the point of attachment. Ileψ(thiazoline)Cys = CC[C@H](C)[C@H](N)C1=N[C@H](C(=O)*)CS1; dOrn = NCCC[C@@H](N)C(=O)O

What was measured:
MRSA USA300 (BAA-1680) [1] = assay: microbe, parasite or virus in culture; assay type: cell-based, Staphylococcus aureus; conditions: for bactericidal activity in combination with bacitracin: FIG. 2
Description: (§1) MRSA (ATCC 33593), MSSA (ATCC 29213), and MRSA USA300 (BAA-1680) strains were purchased from the American Type Culture Collection (ATCC; Manassas, Va.). Eight clinical isolates of MRSA were obtained from the Culture Collection of Antimicrobial Resistant Microbes, Korea National Research Resource Center (KNRRC). Salmonella enterica Typhimurium LT2 was purchased from ATCC, and Escherichia coli O157:H7 is a kind gift from Dr. Sangryeol Ryu (Seoul National University, South Korea). All S. aureus strains were maintained in Trypticase Soy (TS) medium, and E. coli O157:H7 and Salmonella were routinely grown aerobically on Luria-Bertani (LB) media at 37° C. For measuring growth kinetics, an overnight culture of MRSA in Mueller-Hinton (MH) broth was diluted 100-fold in fresh MH broth and cultured until early exponential phase. The culture (200 μl) was transferred to each well of a sterile 96-well plate and incubated at 37° C. with bacitracin alone, alkyl gallate alone, and combination of bacitracin/alkyl gallates at various concentrations. The optical density at 600 nm (OD600) was measured every hour with FLUOstar® Omega (BMG Labtech, Germany).
(§2) Broth micro dilution assays were performed to determine the minimum inhibitory concentrations (MIC) accordance to the M7-A7 protocol of the Clinical and Laboratory Standards Institute (CLSI) guidelines^28. The susceptibility test was carried out with an initial bacterial inoculum of 1.5×10^5 CFU ml^−1. Alkyl gallates and bacitracin were serially diluted in a polystyrene 96 well plate and the plate was incubated at 37° C. for 24 h. Minimum bactericidal concentration (MBC) was determined by spotting 10 μl of cultures from MIC tests onto MH agar and incubated aerobically at 37° C.

MRSA USA300 (BAA-1680) [2] = assay: Growth kinetics (OD600) with bacitracin, alkyl gallates and combinations; assay type: cell-based, Staphylococcus aureus; conditions: for growth inhibition by bacitracin in combination with alkyl gallate: bacitracin 0.001 U to 100 U
Description: as §1

USA300 = assay: Bacterial membrane permeability (propidium iodide fluorescence); assay type: cell-based, Staphylococcus aureus; conditions: agent alone, sub-MIC levels, EDTA 1 mM
Experimental: Membrane permeability was determined by measuring fluorescence after exposure of USA300 to propidium iodide as described previously^29. Briefly, USA300 was grown in MH broth to the exponential phase and then diluted to OD600≈0.25. Propidium iodide was mixed with bacteria to a final concentration of 10 μM. […] Fluorescence was monitored at excitation and emission wavelengths of 585 nm and 620 nm, respectively, for 1 h using FLUOstar Omega® (BMG Labtech, Germany). The membrane permeability was calculated by subtracting fluorescence intensity of controls without treatment with phenolic compounds from that of treated samples. EDTA (1 mM) was used as a positive control.

MRSA 3095 = assay: microbe, parasite or virus in culture; assay type: cell-based, Staphylococcus aureus; conditions: MRSA 3095 (human/skin)
Description: as §1, §2

MRSA 3795 = assay: microbe, parasite or virus in culture; assay type: cell-based, Staphylococcus aureus; conditions: MRSA 3795 (human/nose)
Description: as §1, §2

MRSA 3799 = assay: microbe, parasite or virus in culture; assay type: cell-based, Staphylococcus aureus; conditions: MRSA 3799 (human/nose)
Description: as §1, §2

MRSA 3823 = assay: microbe, parasite or virus in culture; assay type: cell-based, Staphylococcus aureus; conditions: MRSA 3823 (human/nose)
Description: as §1, §2

MRSA 3865 = assay: microbe, parasite or virus in culture; assay type: cell-based, Staphylococcus aureus; conditions: MRSA 3865 (human/skin)
Description: as §1, §2

MRSA 3876 = assay: microbe, parasite or virus in culture; assay type: cell-based, Staphylococcus aureus; conditions: MRSA 3876 (human/skin)
Description: as §1, §2

MRSA 3903 = assay: microbe, parasite or virus in culture; assay type: cell-based, Staphylococcus aureus; conditions: MRSA 3903 (human/skin)
Description: as §1, §2

MRSA 3A585 = assay: microbe, parasite or virus in culture; assay type: cell-based, Staphylococcus aureus; conditions: MRSA 3A585 (human/blood)
Description: as §1, §2

MRSA (ATCC 33593) = assay: microbe, parasite or virus in culture; assay type: cell-based, Staphylococcus aureus; conditions: MRSA; for MIC: antioxidant alone
Description: as §1, §2
(§3) MICs were determined with MRSA and methicillin-sensitive S. aureus (MSSA) using a broth dilution method as described above.
(§4) MRSA and MSSA were cultured overnight with antioxidants (0.5 μg/ml) and bacitracin at various concentrations and 10 μL of the culture was spotted on MH agar plates and incubated aerobically at 37° C. to observe the bacterial viability. The results in FIGS. 9A, 9B, 9C and 9D (photographs of plates) show the Minimal Bactericidal Concentrations (MBCs) for indicated antioxidants. Bacitracin killed MRSA and MSSA at concentrations greater than or equal to 2 μg/mi.

MSSA (ATCC 29213) = assay: MIC (broth dilution) and MBC (spotting) of phenolic antioxidants and bacitracin; assay type: cell-based, Staphylococcus aureus; conditions: for MIC: antioxidant alone
Description: as §1, §2, §3, §4

[3] = test system: MRSA (normal MRSA strain, not USA300); assay: MRSA growth (optical density) with bacitracin and phenolic antioxidants; assay type: cell-based, Staphylococcus aureus
Description: as §1
MRSA were grown with bacitracin (0.002 μg/mL) with antioxidant (as shown) at 0.5 μg/mL.
FIG. 7A is growth with no added bacitracin or lauryl gallate.
The optical density of MRSA was measured after 18 h culture with bacitracin (0.002 μg/ml) and antioxidants (as indicated at 0.5 μg/ml). Also measured were controls with no additions, with bacitracin alone and with antioxidant alone. FIGS. 8A, 8B, 8C and 8D are graphs illustrating the results.

Escherichia coli O157:H7 = assay: microbe, parasite or virus in culture; assay type: cell-based; conditions: E. coli O157:H7; agent alone
Description: as §1, §2
MIC and MBC were measured as described above. MIC and MBC data are shown in Table 5 for both the Salmonella and the E. coli strain tested. The tested strains were highly resistant to bacitracin.

[4] = Staphylococcus aureus, 24 h, agent alone, read-out: MIC
[5] = Staphylococcus aureus, agent alone, read-out: MBC
[6] = Staphylococcus aureus, read-out: MIC
[7] = antioxidant 0.5 μg/ml, compared to bacitracin alone

Row | SMILES | MIC (MRSA USA300 (BAA-1680) [1]; agent alone) [µg/mL] | MIC (MRSA 3095; [6]) [µg/mL] | MIC (MRSA 3795; [6]) [µg/mL] | MIC (MRSA 3799; [6]) [µg/mL] | MIC (MRSA 3823; [6]) [µg/mL] | MIC (MRSA 3865; [6]) [µg/mL] | MIC (MRSA 3876; [6]) [µg/mL] | MIC (MRSA 3903; [6]) [µg/mL] | MIC (MRSA 3A585; [6]) [µg/mL] | MBC (MRSA USA300 (BAA-1680) [1]; agent alone) [µg/mL] | growth inhibition by bacitracin in combination with alkyl gallate (MRSA USA300 (BAA-1680) [2]) | other results
1 | CC[C@H](C)[C@H](N)C1=N[C@H](C(=O)N[C@@H](CC(C)C)C(=O)N[C@H](CCC(=O)O)C(=O)N[C@H](C(=O)N[C@H]2CCCCNC(=O)[C@H](CC(N)=O)NC(=O)[C@@H](CC(=O)O)NC(=O)[C@H](Cc3cnc[nH]3)NC(=O)[C@@H](Cc3ccccc3)NC(=O)[C@H]([C@@H](C)CC)NC(=O)[C@@H](CCCN)NC2=O)[C@@H](C)CC)CS1 [Bacitracin, reference compound] ({Ileψ(thiazoline)Cys}-L[dE]IK[dOrn]I[dF]H[dD]N; lactam 4-C) | 1024 |  |  |  |  |  |  |  |  | 2048 |  | MBC (MRSA USA300 (BAA-1680) [1]; bacitracin alone, in units): 200 U; MIC (MRSA USA300 (BAA-1680) [1]; bacitracin alone, in units): 100 U; growth inhibition by bacitracin only (MRSA USA300 (BAA-1680) [2]; up to 100 U bacitracin, without alkyl gallates): did not inhibit USA300; membrane permeability (USA300): did not affect membrane permeability; MIC (MRSA 3095): 128 µg/mL; MIC (MRSA 3795): 8 µg/mL; MIC (MRSA 3799): 128 µg/mL; MIC (MRSA 3823): 64 µg/mL; MIC (MRSA 3865): 128 µg/mL; MIC (MRSA 3876): 128 µg/mL; MIC (MRSA 3903): 32 µg/mL; MIC (MRSA 3A585): 128 µg/mL; bacitracin MIC for MRSA (MRSA (ATCC 33593); bacitracin alone): 2 µg/mL; concentration of bacitracin alone that killed (MBC) (MRSA (ATCC 33593); bacitracin alone): greater than or equal to 2 μg/mi; concentration of bacitracin alone that killed (MBC) (MSSA (ATCC 29213); bacitracin alone): greater than or equal to 2 μg/mi; MRSA growth inhibition by bacitracin alone ([3]; bacitracin 0.0019 μg/mL to 1 μg/mL, FIG. 7B): did not inhibit MRSA; MBC (Escherichia coli O157:H7): >1024 µg/mL; MIC (Escherichia coli O157:H7): >1024 µg/mL
2 | O=C(O)CN(CCN(CC(=O)O)CC(=O)O)CC(=O)O [EDTA, reference compound] |  |  |  |  |  |  |  |  |  |  |  | membrane permeability (USA300): significantly increased membrane permeability
3 | CCCCCCCCCCCCCCCCCCOC(=O)c1cc(O)c(O)c(O)c1 [Stearyl gallate (SG), stearyl gallate] |  | > 1020 | > 1020 | > 1020 | > 1020 | > 1020 | > 1020 | > 1020 | > 1020 |  | completely inhibited the growth of USA300 | bactericidal activity in combination with bacitracin (MRSA USA300 (BAA-1680) [1]): killing effect was not as significant as OG, LG, and BG; MIC (MRSA USA300 (BAA-1680) [1]; [4]): 1020 µg/mL; MBC (MRSA USA300 (BAA-1680) [1]; [5]): 2050 µg/mL

Second part, led by results:

Row | MIC (MRSA USA300 (BAA-1680) [1]; agent alone) [µg/mL] | MIC (MRSA 3095; [6]) [µg/mL] | MIC (MRSA 3795; [6]) [µg/mL] | MIC (MRSA 3799; [6]) [µg/mL] | MIC (MRSA 3823; [6]) [µg/mL] | MIC (MRSA 3865; [6]) [µg/mL] | MIC (MRSA 3876; [6]) [µg/mL] | MIC (MRSA 3903; [6]) [µg/mL] | MIC (MRSA 3A585; [6]) [µg/mL] | SMILES | MBC (MRSA USA300 (BAA-1680) [1]; agent alone) [µg/mL] | growth inhibition by bacitracin in combination with alkyl gallate (MRSA USA300 (BAA-1680) [2]) | other results
4 |  | 512 | 512 | 512 | 512 | 512 | 512 | 512 | 512 | CCCCOC(=O)c1cc(O)c(O)c(O)c1 [Butyl gallate (BG), Butyl gallate] |  | significant growth inhibition | bactericidal activity in combination with bacitracin (MRSA USA300 (BAA-1680) [1]): synergistic antimicrobial activity; MIC (MRSA USA300 (BAA-1680) [1]; [4]): 512 µg/mL; MBC (MRSA USA300 (BAA-1680) [1]; [5]): 1020 µg/mL
5 | 128 | > 1020 | > 1020 | > 1020 | > 1020 | > 1020 | > 1020 | > 1020 | > 1020 | CCOC(=O)c1cc(O)c(O)c(O)c1 [Ethyl gallate (EG), ethyl gallate] | 256 | significant growth inhibition | 
6 | 128 | > 1020 | > 1020 | > 1020 | > 1020 | > 1020 | > 1020 | > 1020 | > 1020 | COC(=O)c1cc(O)c(O)c(O)c1 [Methyl gallate (MG), methyl gallate] | 256 | significant growth inhibition | 
7 | 128 | > 1020 | 512 | 512 | 512 | > 1020 | > 1020 | > 1020 | > 1020 | CCCOC(=O)c1cc(O)c(O)c(O)c1 [Propyl gallate, propyl gallate] | 256 |  | fold decrease of bacitracin MBC by antioxidant (MRSA (ATCC 33593); [7]): 8 fold; MIC (MRSA (ATCC 33593)): 512 µg/mL; MIC (MRSA (ATCC 33593); [6]): 256 µg/mL; MIC (MSSA (ATCC 29213); [6]): 128 µg/mL; fold decrease of bacitracin MBC by antioxidant (MSSA (ATCC 29213); [7]): 16 fold; MIC (MSSA (ATCC 29213)): 64 µg/mL; growth of MRSA with bacitracin plus antioxidant ([3]; bacitracin 0.002 μg/mL, antioxidant 0.5 μg/mL, FIG. 6): significantly inhibited the growth of MRSA
